# Tests used:
# [1] = The drug is tested on Collinsella intestinalis strain: DSM13280 for biotransformation. The drug concentrations were measured before and after a 12-h incubation by liquid-chromatography-coupled mass spectrometry (LC–MS); conditions: 2 µM
# [2] = The drug is tested on Alistipes indistinctus strain: DSM22520 for biotransformation. The drug concentrations were measured before and after a 12-h incubation by liquid-chromatography-coupled mass spectrometry (LC–MS); conditions: 2 µM
# [3] = The drug is tested on Coprococcus comes strain: ATCC27758 for biotransformation. The drug concentrations were measured before and after a 12-h incubation by liquid-chromatography-coupled mass spectrometry (LC–MS); assay type: ADME; design: dose 2 uM, timepoint 0 vs 12 hours; conditions: 2 µM
# [4] = biological target: T1, Acyltransferase 3 domain-containing protein (Phocaeicola dorei, UniProt B6W2J3); assay: (§1) The drug is tested on Bacteroides dorei strain: DSM17855 for biotransformation. The drug concentrations were measured before and after a 12-h incubation by liquid-chromatography-coupled mass spectrometry (LC–MS); assay type: ADME; design: dose 2 uM; conditions: 2 µM
# T1 sequence (B6W2J3 whole entry): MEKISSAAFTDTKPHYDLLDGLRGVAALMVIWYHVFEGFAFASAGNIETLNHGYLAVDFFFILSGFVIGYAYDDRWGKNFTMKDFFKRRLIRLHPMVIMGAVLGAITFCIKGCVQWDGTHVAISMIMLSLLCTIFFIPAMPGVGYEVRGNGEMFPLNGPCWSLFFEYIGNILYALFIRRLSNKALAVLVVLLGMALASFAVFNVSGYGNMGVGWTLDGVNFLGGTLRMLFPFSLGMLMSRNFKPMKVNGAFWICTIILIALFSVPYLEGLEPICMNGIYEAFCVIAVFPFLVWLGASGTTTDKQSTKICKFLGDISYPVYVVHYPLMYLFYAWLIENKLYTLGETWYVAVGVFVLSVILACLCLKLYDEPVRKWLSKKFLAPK
# Esterase = biological target: T2, Esterase (Phocaeicola dorei, UniProt B6W2J6); assay: as §1; assay type: ADME; design: dose 2 uM; conditions: 2 µM
# T2 sequence (B6W2J6 whole entry): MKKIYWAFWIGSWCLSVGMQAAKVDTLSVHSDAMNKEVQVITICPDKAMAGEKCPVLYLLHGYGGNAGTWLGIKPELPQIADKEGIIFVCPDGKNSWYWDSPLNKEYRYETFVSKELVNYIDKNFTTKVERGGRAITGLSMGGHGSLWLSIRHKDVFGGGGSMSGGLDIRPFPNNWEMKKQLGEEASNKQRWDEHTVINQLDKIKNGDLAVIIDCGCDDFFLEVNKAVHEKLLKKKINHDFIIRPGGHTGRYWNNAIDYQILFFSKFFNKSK
# [5] = biological target: T3, Nitroreductase domain-containing protein (Phocaeicola dorei, UniProt B6W3P3); assay: as §1; assay type: ADME; design: dose 2 uM; conditions: 2 µM
# T3 sequence (B6W3P3 whole entry): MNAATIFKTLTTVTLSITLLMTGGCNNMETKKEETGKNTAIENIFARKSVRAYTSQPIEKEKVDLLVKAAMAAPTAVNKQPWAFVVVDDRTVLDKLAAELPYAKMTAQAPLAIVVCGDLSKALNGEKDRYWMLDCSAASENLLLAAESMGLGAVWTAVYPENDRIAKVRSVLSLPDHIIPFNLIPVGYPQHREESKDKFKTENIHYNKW
# [6] = biological target: T4, SGNH hydrolase-type esterase domain-containing protein (Phocaeicola dorei, UniProt B6VTE7); assay: as §1; assay type: ADME; design: dose 2 uM; conditions: 2 µM
# T4 sequence (B6VTE7 whole entry): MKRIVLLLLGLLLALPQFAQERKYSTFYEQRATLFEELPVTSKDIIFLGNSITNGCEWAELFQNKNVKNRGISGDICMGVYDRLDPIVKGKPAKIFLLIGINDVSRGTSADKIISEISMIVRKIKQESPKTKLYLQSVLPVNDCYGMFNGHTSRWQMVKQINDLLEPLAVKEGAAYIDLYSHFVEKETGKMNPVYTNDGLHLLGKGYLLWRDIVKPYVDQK
# [7] = biological target: T5, SGNH hydrolase-type esterase domain-containing protein (Phocaeicola dorei, UniProt B6W1J1); assay: as §1; assay type: ADME; design: dose 2 uM; conditions: 2 µM
# T5 sequence (B6W1J1 whole entry): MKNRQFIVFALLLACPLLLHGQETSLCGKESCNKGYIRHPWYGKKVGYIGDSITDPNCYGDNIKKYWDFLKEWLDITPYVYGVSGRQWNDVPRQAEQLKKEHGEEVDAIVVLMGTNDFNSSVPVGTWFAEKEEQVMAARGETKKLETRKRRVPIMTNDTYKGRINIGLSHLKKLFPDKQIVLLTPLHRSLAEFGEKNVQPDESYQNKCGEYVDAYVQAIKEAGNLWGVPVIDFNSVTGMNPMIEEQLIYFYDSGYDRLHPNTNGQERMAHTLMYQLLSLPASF
# [8] = biological target: T6, SGNH hydrolase-type esterase domain-containing protein (Phocaeicola dorei, UniProt B6W293); assay: as §1; assay type: ADME; design: dose 2 uM; conditions: 2 µM
# T6 sequence (B6W293 whole entry): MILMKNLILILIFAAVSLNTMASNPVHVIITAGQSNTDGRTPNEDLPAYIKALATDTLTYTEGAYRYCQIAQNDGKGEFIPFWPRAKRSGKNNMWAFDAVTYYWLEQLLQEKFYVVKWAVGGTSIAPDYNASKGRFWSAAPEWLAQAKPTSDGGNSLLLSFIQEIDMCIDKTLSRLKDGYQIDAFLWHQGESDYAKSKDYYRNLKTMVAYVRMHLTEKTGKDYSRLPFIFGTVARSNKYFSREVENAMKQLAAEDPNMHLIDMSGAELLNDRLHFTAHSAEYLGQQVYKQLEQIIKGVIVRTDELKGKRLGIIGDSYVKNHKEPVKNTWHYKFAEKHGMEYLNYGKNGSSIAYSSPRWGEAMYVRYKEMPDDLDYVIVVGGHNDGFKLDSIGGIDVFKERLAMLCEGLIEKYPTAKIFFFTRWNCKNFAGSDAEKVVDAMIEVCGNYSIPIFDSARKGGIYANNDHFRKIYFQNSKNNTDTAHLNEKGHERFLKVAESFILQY
# [9] = biological target: T7, Steroid 5-alpha reductase C-terminal domain-containing protein (Phocaeicola dorei, UniProt B6W0N3); assay: as §1; assay type: ADME; design: dose 2 uM; conditions: 2 µM
# T7 sequence (B6W0N3 whole entry): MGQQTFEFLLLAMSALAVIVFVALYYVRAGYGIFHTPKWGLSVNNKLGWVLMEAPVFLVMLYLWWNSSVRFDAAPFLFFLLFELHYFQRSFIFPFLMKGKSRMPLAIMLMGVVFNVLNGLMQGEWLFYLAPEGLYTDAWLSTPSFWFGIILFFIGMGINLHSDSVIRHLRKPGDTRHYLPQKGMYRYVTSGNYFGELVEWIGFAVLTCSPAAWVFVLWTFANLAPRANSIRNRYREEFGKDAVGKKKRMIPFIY
# [10] = bacteroides fragilis, 12 h, 2 µM
# Description: The drug is tested on Bacteroides fragilis strain: NCTC 9343 for biotransformation. The drug concentrations were measured before and after a 12-h incubation by liquid-chromatography-coupled mass spectrometry (LC–MS)
# [11] = bacteroides stercoris, 12 h, 2 µM
# Description: The drug is tested on Bacteroides stercoris strain: ATCC43183 for biotransformation. The drug concentrations were measured before and after a 12-h incubation by liquid-chromatography-coupled mass spectrometry (LC–MS)
# [12] = enterocloster bolteae, 12 h, 2 µM
# Description: The drug is tested on Clostridium bolteae strain: ATCCBAA-613 for biotransformation. The drug concentrations were measured before and after a 12-h incubation by liquid-chromatography-coupled mass spectrometry (LC–MS)
# [13] = roseburia intestinalis, 12 h, 2 µM
# Description: The drug is tested on Roseburia intestinalis strain: L1-82 for biotransformation. The drug concentrations were measured before and after a 12-h incubation by liquid-chromatography-coupled mass spectrometry (LC–MS)
Structure (SMILES),Bacterial Biotransformation [1],Bacterial Biotransformation [2],Bacterial Biotransformation [3],Bacterial Biotransformation [4],Bacterial Biotransformation (Esterase),Bacterial Biotransformation [5],Bacterial Biotransformation [6],Bacterial Biotransformation [7],Bacterial Biotransformation [8],Bacterial Biotransformation [9],Bacterial Biotransformation [10],Bacterial Biotransformation [11],Bacterial Biotransformation [12],Bacterial Biotransformation [13]
COc1ccnc(C[S+]([O-])c2nc3ccc(OC(F)F)cc3[nH]2)c1OC (stereo unspecified) [PANTOPRAZOLE],Compound metabolized,Compound metabolized,Compound metabolized,Compound NOT metabolized,Compound metabolized,Compound NOT metabolized,Compound metabolized,Compound metabolized,Compound metabolized,Compound NOT metabolized,Compound metabolized,Compound metabolized,Compound metabolized,Compound metabolized
CCN(CC)C(=O)/C(C#N)=C/c1cc(O)c(O)c([N+](=O)[O-])c1 [ENTACAPONE],Compound metabolized,Compound metabolized,Compound metabolized,Compound NOT metabolized,Compound NOT metabolized,Compound NOT metabolized,Compound NOT metabolized,Compound NOT metabolized,Compound NOT metabolized,Compound NOT metabolized,Compound metabolized,Compound metabolized,Compound metabolized,Compound metabolized
CCOC(=O)C1=C(C)NC(C)=C(C(=O)OC)C1c1cccc([N+](=O)[O-])c1 (stereo unspecified) [NITRENDIPINE],Compound metabolized,Compound metabolized,Compound metabolized,Compound NOT metabolized,Compound NOT metabolized,Compound metabolized,Compound NOT metabolized,Compound NOT metabolized,Compound NOT metabolized,Compound NOT metabolized,Compound metabolized,Compound metabolized,Compound metabolized,Compound metabolized
CC(=O)Nc1ccc(OC(C)=O)cc1 [DIACETAMATE],Compound metabolized,Compound metabolized,Compound metabolized,Compound NOT metabolized,Compound metabolized,Compound NOT metabolized,Compound metabolized,Compound metabolized,Compound metabolized,Compound NOT metabolized,Compound metabolized,Compound metabolized,Compound metabolized,Compound metabolized

# From ChEMBL document CHEMBL5303573, “Mapping human microbiome drug metabolism by gut bacteria and their genes” (Nature, 2019)
